Values quoted from earlier work as cited in patent US9603775B2, “Delamination resistant pharmaceutical glass containers containing active pharmaceutical ingredients” (Corning Incorporated, priority 2013, dated 2017).

Legend:
[1] = tested on: 26S proteasome
[2] = tested on: IL-12 and IL-23 mediated signaling and cytokine cascades; settings: in vitro models

| Molecule | effect on antigen presentation [1] | effect on IL-12 and IL-23 mediated signaling and cytokine cascades [2] |
| --- | --- | --- |
| CC(C)C[C@H](NC(=O)[C@H](Cc1ccccc1)NC(=O)c1cnccn1)B(O)O [bortezomib, [(1R)-3-methyl-1-[[(2S)-1-oxo-3-phenyl-2-[(pyrazinylcarbonyl)amino]propyl]amino]butyl]boronic acid] | inhibited in a dose dependent manner |  |
| ustekinumab: human IgG1κ monoclonal antibody that binds the p40 subunit of IL-12 and IL-23 cytokines |  | disrupt IL-12 and IL-23 mediated signaling and cytokine cascades |
